Experimental findings from US20170158599A1, “COMPOSITIONS AND METHODS COMPRISING SALICYLATES AND POLYSALICYLATES” (Biocogent, LLC, priority 2014, published 2017) are described below.

The test system of the assay is peripheral blood mononuclear cells (PBMC). The experiment in a line: Lipid mediators of the resolution pathways in PBMC with PMA/A23187 stimulation. It is filed as cell-based. From the text:
The next two sets of adjacent bars show a comparison of the effects of treatment with PMA plus A23187 in the presence of salicylic acid (on left of each group) and polysalicylic acid (on right of each group) in amounts of 1.6 micrograms per milliliter (μg/mL) and 8 micrograms per milliliter (μg/mL), respectively. […] The resultant SA derivative was evaluated at different doses on the synthesis of 8 intermediate lipids of the resolution pathways in PMBC with PMA/A23187 stimulation. PMBC cells were seeded and allowed to settle for 1 hour; the test compounds were then added and allowed to incubate for an additional hour. The inflammatory stimulus (PMA plus A23187) was added for one hour, and supernatants were collected and analyzed for lipid intermediates.

For the compound `O=C(O)c1ccccc1O` [salicylic acid, 2-hydroxybenzoic acid], the 14-HDOHE levels/production result (PMA plus A23187, 1.6 and 8 μg/mL (FIG. 1)) is “noticeable increase over the control”. Besides, the 12-HETE levels/production result (PMA plus A23187, 1.6 and 8 μg/mL (FIG. 2)) was “noticeable increase over the control”.
